Literature values, collected in patent US20150086616A1, “METHOD FOR THE PREVENTION AND TREATMENT OF ALZHEIMER'S DISEASE” (priority 2013, published 2015).

How the values were obtained:
[1] = tested on: cyclooxygenase
[2] = tested on: Alzheimer's disease; details: for efficacy of oral NSAID as treatment of Alzheimer's disease: oral administration
[3] = highly lipophilic drugs
[4] = ophthalmic
[5] = after multiple oral doses of ibuprofen

C[C@H](C(=O)O)c1ccc(-c2ccccc2)c(F)c1 (single isomer, unassigned) [S-enantiomer of flurbiprofen]
direct cyclooxygenase inhibition [1]: is a cyclooxygenase inhibitor

C[C@@H](C(=O)O)c1ccc(-c2ccccc2)c(F)c1 [R-flurbiprofen]
direct cyclooxygenase inhibition [1]: devoid of any direct cyclooxygenase inhibition | phase III clinical trial for the treatment of Alzheimer's disease ([2]; phase III clinical trial): failed

O=C(O)Cc1ccccc1Nc1c(Cl)cccc1Cl [diclofenac]
crossing of the blood brain barrier [3]: readily cross the blood brain barrier | anti-inflammatory action compared with flurbiprofen [4]: more anti-inflammatory action | burning sensation compared with flurbiprofen [4]: less burning sensation

CC(C(=O)O)c1ccc(-c2ccccc2)c(F)c1 (stereo not drawn) [flurbiprofen]
crossing of the blood brain barrier [3]: readily cross the blood brain barrier | efficacy of oral NSAID as treatment of Alzheimer's disease [2]: not an effective treatment

CC(C)Cc1ccc(C(C)C(=O)O)cc1 (stereo not drawn) [ibuprofen]
brain concentration [5]: 0.4 µg/g | concentration in fat [5]: 58.4 μg/g tissue | crossing of the blood brain barrier [3]: readily cross the blood brain barrier | efficacy of oral NSAID as treatment of Alzheimer's disease [2]: not an effective treatment
